Calls of active or inactive are those of the source. No rule for the calls is given here.
Test system: CCRIS mutagenicity, Ames/micronucleus/aberration tests
Experiment: CCRIS mutagenicity studies
[1] = Test System: AMES SALMONELLA TYPHIMURIUM, Strain/Indicator: TA98, Metabolic Activation: NONE, Method: STANDARD PLATE
[2] = Test System: AMES SALMONELLA TYPHIMURIUM, Strain/Indicator: TA98, Metabolic Activation: RAT, LIVER, S-9, AROCLOR 1254, Method: STANDARD PLATE
[3] = Test System: AMES SALMONELLA TYPHIMURIUM, Strain/Indicator: TA100, Metabolic Activation: NONE, Method: STANDARD PLATE
[4] = Test System: AMES SALMONELLA TYPHIMURIUM, Strain/Indicator: TA100, Metabolic Activation: RAT, LIVER, S-9, AROCLOR 1254, Method: STANDARD PLATE
[5] = Test System: AMES SALMONELLA TYPHIMURIUM, Strain/Indicator: TA97, Metabolic Activation: NONE, Method: STANDARD PLATE

SMILES | mutagenic call [1] | mutagenic call [2] | mutagenic call [3] | mutagenic call [4] | mutagenic call [5] | further results
NC(=O)CCC(=O)Nc1ccc(Cl)c(Cl)c1Cl | inactive; negative | inactive; negative | inactive; negative | inactive; negative | – | –
NC(CS)C(=O)O (stereo not given) | – | – | – | – | – | mutagenic call (Test System: AMES SALMONELLA TYPHIMURIUM, Strain/Indicator: TA98, Metabolic Activation: RAT LIVER S-9, CHLOROPHENE, Method: STANDARD PLATE (COMPOUND HEATED AT 250 DEGREES CELSIUS FOR 20 MIN)): inactive; negative
NC(CO)C(=O)NNCc1ccc(O)c(O)c1O (stereo not given) | – | – | active; positive | – | – | mutagenic call (Test System: AMES SALMONELLA TYPHIMURIUM, Strain/Indicator: TA100, Metabolic Activation: RAT, LIVER, S-9, PHENOBARBITAL, Method: STANDARD PLATE): active; positive; mutagenic call (Test System: UDS RAT HEPATOCYTES, Strain/Indicator: THY INCORP, Metabolic Activation: NONE, Method: AUTORADIOGRAPHY): inactive; negative
COC12OOC1(C)Oc1ccccc12 (stereo not given) | – | – | – | – | – | mutagenic call (Test System: AMES SALMONELLA TYPHIMURIUM, Strain/Indicator: TA100, Metabolic Activation: NONE, Method: PREINCUBATION): active; positive
ClCc1ccccn1 | inactive; negative | inactive; negative | active; positive | active; positive | inactive; negative | mutagenic call (Test System: AMES SALMONELLA TYPHIMURIUM, Strain/Indicator: TA97, Metabolic Activation: RAT, LIVER, S-9, AROCLOR 1254, Method: STANDARD PLATE): inactive; negative; mutagenic call (Test System: AMES SALMONELLA TYPHIMURIUM, Strain/Indicator: TA102, Metabolic Activation: NONE, Method: STANDARD PLATE): inactive; negative; mutagenic call (Test System: AMES SALMONELLA TYPHIMURIUM, Strain/Indicator: TA102, Metabolic Activation: RAT, LIVER, S-9, AROCLOR 1254, Method: STANDARD PLATE): inactive; negative; mutagenic call (Test System: CHINESE HAMSTER OVARY, Strain/Indicator: CHO-K1-BH4 (HGPRT)/6-THIOGUANINE, Metabolic Activation: NONE): active; positive; mutagenic call (Test System: CHINESE HAMSTER OVARY, Strain/Indicator: CHO-K1-BH4 (HGPRT)/6-THIOGUANINE, Metabolic Activation: S-9): inactive; negative
O=C1C=Cc2ccc3c4c(ccc1c24)C(=O)C=C3 | inactive; negative | – | inactive; negative | – | active; positive | mutagenic call (Test System: AMES SALMONELLA TYPHIMURIUM, Strain/Indicator: TA97, Metabolic Activation: RAT, LIVER, S-9, PCB, Method: STANDARD PLATE): active; positive; mutagenic call (Test System: AMES SALMONELLA TYPHIMURIUM, Strain/Indicator: TA98, Metabolic Activation: RAT, LIVER, S-9, PCB, Method: STANDARD PLATE): inactive; negative; mutagenic call (Test System: AMES SALMONELLA TYPHIMURIUM, Strain/Indicator: TA100, Metabolic Activation: RAT, LIVER, S-9, PCB, Method: STANDARD PLATE): inactive; negative

Source: PubChem BioAssay AID1259407 (Chemical Carcinogenesis Research Information System (CCRIS), 2018)
